Assay results: US20120141390A1, “Natural Preservatives and Antimicrobial Agents” (priority 2007, published 2012)

Tests used:
Test in all cases: Microplate antibacterial assay (optical density at 540 nm)
Assay type in all cases: cell-based
[1] = tested on: Proteus vulgaris ACM 4730; conditions: 37° C., 22 h; for MIC0: highest concentration with no inhibition of growth; for MIC100: lowest concentration giving 100% inhibition
Method: (§1) Bacterial strains and growth conditions: Test organisms used in the assay were Staphylococcus aureus strain 6571 (NCTC—National Collection of Type Cultures, Health Protection Agency Centre for Infection, London, UK), Streptococcus mutans ACM 969 and Proteus vulgaris ACM 4730, were supplied by the Australian Collection of Microorganisms (ACM), University of Queensland. The test organisms were grown for 24 h in Tryptone Soya Yeast Extract Broth (TSYEB) (Oxoid CM 129B, Basingstoke, UK), 30 g/L; yeast extract (Oxoid CM19), 6 g/L. The inoculum was quantified by measuring the optical density (absorbance) at 540 nm and adjusted to 0.5 absorbance with TSYEB.
(§2) Preparation and dilution of bacterial strains: An inoculum was prepared by serially diluting (1:1) the overnight culture of the test organisms in TSYEB broth 22 times. The dilutions from 11-22 were used on the 96 well microlitre plate. After the dilutions were made the lowest dilution was plated on Plate Count Agar (Oxoid CM0463) for all the test organisms to confirm the bacterial count.
(§3) Preparation of Polyphenol Powder from Molasses: the Polyphenol Powder from Molasses (0.1 g) was dissolved in 10 ml of TSYEB. This solution was diluted in TSYEB starting at a concentration of 1% (w/v) and diluted to 0.0005% (w/v).
(§4) Preparation of Antibiotic Solutions: the Antibiotics Penicillin G and Oxytetracyclin hydrochloride from Sigma-Aldrich (St. Louis, Mo.) were used in this study. 0.01 g each of Penicillin G and Oxytetracyclin were dissolved in 20 ml of TSYEB.
(§5) The antibiotic solutions of Penicillin G and Oxytetracyclin were diluted in TSYEB (1:1) starting at a concentration of 0.05% (w/v) and diluted to 2.44×10^−5% (w/v).
(§6) Microplate assay procedure: Flat bottom 96 well sterile microtiter plates with lid to prevent cross contamination (Sarstedt, Nümbrecht, Germany) were used for the study. Each 96 well microtiter plate supported one row of wells containing the medium alone (sterility and negative control). Three rows from the first row of wells contained 1:1 dilutions of test organisms (bacterial controls equivalent to 10^5 cfu/ml in the left most well to 10^2 cfu/ml in the right most well) and the polyphenol solution from molasses highest to the lowest concentration (1% to 0.0005 w/v). Each of the combinations of polyphenol solution and bacterial cells were done in triplicate measurements. The next three rows of wells contained the same number of bacterial dilutions but the polyphenol solution was from the lowest to the highest concentration (0.0005% to 1% w/v). Each of the combinations of polyphenol solution and bacterial cells were done in triplicate measurements. The remaining row contained the same number of bacterial dilutions with growth media and polyphenol solution and was called the positive control. Replicates (n=6) of the positive control with no polyphenol solution was run on a separate plate for test organisms. Each 300 μl well contained 50 μl of inoculum, 150 μL of polyphenol solution. Each negative or sterility control well contained 200 μl of TSYEB broth. Each positive control well contained 50 μl of inoculum, 150 μl of TSYEB broth.
(§7) Penicillin G and Oxytetracyclin hydrochloride were used as reference standards to determine the sensitivity of test organisms and to compare the antimicrobial activity of the polyphenol solution with that of the antibiotics.
(§8) Optical density (OD) was determined in a spectrophotometer Sunrise-Basic Tecan (Grödig, Austria) at 540 nm. OD was determined prior to incubation and represents the spectrophotometric reading at time zero (T0). Plates were placed in an incubator at 37° C. and incubated for 22 h. Streptococcus mutans was incubated at 37° C. for 22 and 44 h. The solutions in the plates were mixed using a multichannel pipette to prevent clumping prior to reading the OD in the spectrophotometer after 22 h (T22).
(§9) Analysis of results: The calculations for Percent Inhibition were based on the study by Casey et al. 2004; Patton et al. 2006. […]

[2] = tested on: Staphylococcus aureus strain 6571; conditions: 37° C., 22 h; for MIC100: lowest concentration giving 100% inhibition
Method: as §1, §2, §3, §4, §5, §6, §7, §8, §9

[3] = tested on: Streptococcus mutans ACM 969; conditions: lowest concentration giving 100% inhibition, 37° C., growth extended to 44 h
Method: as §1, §2, §3, §4, §5, §6, §7, §8, §9

[4] = listed as oxytetracyclin, hydrochloride

Row | Structure (SMILES) | MIC0 [1] | MIC100 [1] | MIC100 ([2]; hydrochloride) | MIC100 [2, 4] | MIC100 ([3]; hydrochloride) | MIC100 [3, 4] | MIC0 ([2]; highest concentration with no inhibition of growth) | MIC100 [2] | MIC100 [3]
1 | CN(C)[C@@H]1C(O)=C(C(N)=O)C(=O)[C@@]2(O)C(O)=C3C(=O)c4c(O)cccc4[C@@](C)(O)[C@H]3[C@H](O)[C@@H]12.Cl [Oxytetracylin, Oxytetracyclin hydrochloride] | 2.44 × 10^−5 % w/v | 7.88 × 10^−4 % w/v | <2.44 × 10^−5 % w/v | 2.44×10^−5 % w/v | <2.44 × 10^−5 % w/v | 2.44×10^−5 % w/v | – | – | –
2 | CC1(C)S[C@@H]2[C@H](NC(=O)Cc3ccccc3)C(=O)N2[C@H]1C(=O)O [Penicillin G] | 4.88 × 10^−5 % w/v | 7.81 × 10^−4 % w/v | – | – | – | – | <2.44 × 10^−5 % w/v | 9.77 × 10^−5 % w/v | <2.44 × 10^−5 % w/v
